In the Deep4Chem optical property database one finds photoluminescence quantum yield data, which are given here for 35 compounds.

The data set in a line: photoluminescence quantum yield (fraction); solvent given as SMILES.
[1] abbreviates: in O=P(c1ccccc1)(c1ccccc1)c1ccccc1Oc1ccccc1P(=O)(c1ccccc1)c1ccccc1.

Turning to `CCN(CC)c1ccc(/C=C/c2ccc(-c3ccc(/C=C/c4ccc(N(CC)CC)cc4)s3)s2)cc1`, the photoluminescence quantum yield reads like this: (in C1CCOC1) 0.14; (in CC#N) 0.13; (in CC(C)=O) 0.13; (in CN(C)C=O) 0.12; (in Cc1ccccc1) 0.14.
As to `COCCOCCOCCOc1ccc(OCCOCCOCCOC)c(C=O)c1`, the photoluminescence quantum yield by setting is: (in CC(C)(C)O) 0.13; (in CC(C)CO) 0.2; (in CC(C)O) 0.2; (in CCCCO) 0.22; (in CCCO) 0.23; (in CCO) 0.2. Also, the photoluminescence quantum yield is 0.02 (in CN(C)C=O); 0.14 (in CNC=O); 0.25 (in CO); 0.43 (in NC=O); 0.11 (in O).
In turn, `c1cc2ccc3ccc(OP4(Oc5ccc6ccc7cccc8ccc5c6c78)=NP(Oc5ccc6ccc7cccc8ccc5c6c78)(Oc5ccc6ccc7cccc8ccc5c6c78)=NP(Oc5ccc6ccc7cccc8ccc5c6c78)(Oc5ccc6ccc7cccc8ccc5c6c78)=N4)c4ccc(c1)c2c34` registered a photoluminescence quantum yield (in ClCCl) of 0.92.
On to `CC1=N/C(=C\c2cccc(N(C)C)c2)C(=O)N1CCO`, for which the photoluminescence quantum yield reads like this: (in C1CCOC1) 0.12; (in CC#N) 0.02; (in CCCCCC) 0.43.
On to `O=C1C2=C(O[B-](F)(F)[n+]3c2ccc2ccccc23)c2ccc(N3CCOCC3)c3cccc1c23`, for which the photoluminescence quantum yield was 0.55 (in C1CCOC1); 0.49 (in CC#N); 0.46 (in CCO); 0.45 (in CO); 0.53 (in ClCCl).
With `CN1/C(=C/C=C(/C=C/c2sc3ccccc3[n+]2C)c2ccccc2)Sc2ccccc21`, the photoluminescence quantum yield is 0.06 (in CCO), 0.07 (in CO) and 0.24 (in CS(C)=O).
`[NH3+]C(Cc1ccccc1)C(=O)[O-]` (stereo not given) yielded a photoluminescence quantum yield (in O) of 0.022.
On to `COc1cc2cc(/C=C/c3ccc(/C=C/c4ccc(/C=C(\C#N)C(=O)O)cc4)cc3)c(=O)oc2cc1OC`, for which, for the setting “in CC#N”, the photoluminescence quantum yield was determined as 0.24.
Take `COC(=O)/C=C/c1ccc2ccc3cccc4ccc1c2c34`: the photoluminescence quantum yield amounted to 0.73 (in C1CCOC1); 0.55 (in C1COCCO1); 0.46 (in CC#N); 0.51 (in CC(C)=O); 0.46 (in CCCCCC); 0.57 (in CCOC(C)=O). Also, the photoluminescence quantum yield was found to be 0.26 (in CO) and 0.47 (in Cc1ccccc1).
Under “in CO”, `Oc1cc2ccc3cc(O)cc4ccc(c1)c2c34` displayed a photoluminescence quantum yield of 0.93.
Take `O=C([O-])c1ccc(C(=O)[O-])c(C2=c3cc4c5c(c3Oc3c2cc2c6c3CCCN6CCC2)CCC[N+]=5CCC4)c1`: the photoluminescence quantum yield reads like this: (in CCO) 0.83; (in O) 0.64.
The compound `Cc1cc(=O)c2c(ccc3ccc(O)cc32)o1` displayed a photoluminescence quantum yield (in CC#N) of 0.02.
For the setting “in CCO”, `CC1(C)C(/C=C/C2=C(Cl)C(=C/C=C3/N(CCCCCC(=O)O)c4ccccc4C3(C)C)/CCC2)=[N+](CCCCCC(=O)O)c2ccccc21` registered a photoluminescence quantum yield of 0.119.
For `CC(C)c1cccc(C(C)C)c1N1C(=O)c2ccc3c(-c4ccccc4)c4c5ccc6c7c(ccc(c(-c8ccccc8)c4c4ccc(c2c34)C1=O)c75)C(=O)N(c1c(C(C)C)cccc1C(C)C)C6=O`, the photoluminescence quantum yield (in ClCCl) was 0.24.
Take `COC(=O)c1ccc(/C=C2\N=C(c3ccccc3)NC2=O)cc1`: the photoluminescence quantum yield (in C1COCCO1) is 0.159.
As to `CC(C)c1ccc2ccc3c(C(C)C)ccc4ccc1c2c43`, the photoluminescence quantum yield is, setting by setting: (in CCCCCC) 0.45; (in CO) 0.55; (in ClCCl) 0.39.
Under “in Cc1ccccc1”, `c1ccc(N2c3ccc4ccccc4c3-c3c4ccccc4cc[n+]3[B-]2(c2ccccc2)c2ccccc2)cc1` displayed a photoluminescence quantum yield of 0.17.
In the case of `CCC1(CC)c2cc(C=O)ccc2-c2ccc(N(C)C)cc21`, the photoluminescence quantum yield by setting is: (in C1CCCCC1) 0.02; (in CC#N) 0.81; (in CCO) 0.64; (in CCOCC) 0.71; (in CS(C)=O) 0.92; (in ClCCl) 0.91. Under “in c1ccccc1”, this compound showed a photoluminescence quantum yield of 0.82.
Take `Cc1ccc(C2=C3C=C(I)C=[N+]3[B-](F)(F)n3cccc32)cc1`: the photoluminescence quantum yield worked out at 0.034 (in C1CCCCC1); 0.008 (in CC#N); 0.01 (in CCO); 0.011 (in CCOC(C)=O); 0.008 (in CO); 0.009 (in OCC(F)(F)F).
Take `Cc1cc(C)c(B(c2ccccc2N(c2ccccc2)c2ccccc2)c2c(C)cc(C)cc2C)c(C)c1`: under “in Cc1ccccc1”, the photoluminescence quantum yield was found to be 0.73.
In the case of `CCC1=C(C)C2=C(c3c4ccccc4c(C)c4ccccc34)c3c(C)c(CC)c(C)n3[B-](F)(F)[N+]2=C1C`, the photoluminescence quantum yield was 0.054 (in CC#N); 0.883 (in CCCCCC); 0.314 (in CCO); 0.111 (in CN(C)C=O); 0.863 (in Cc1ccccc1); 0.667 (in ClCCl).
`Clc1ccc(/C=C/c2cnc3ccccc3n2)cc1` returned a photoluminescence quantum yield (in ClCCl) of 0.01.
In the case of `CSC1=C(C)C2=C(c3ccc(C)cc3)c3c(C)c(Cl)c(C)n3[B-](F)(F)[N+]2=C1C`, where the note is “in C1CCOC1”, the photoluminescence quantum yield was determined as 0.07.
Take `CCCC1(CCC)c2cc(C=C(C#Cc3ccccc3)C#Cc3ccccc3)ccc2-c2ccc(C=C(C#Cc3ccccc3)C#Cc3ccccc3)cc21`: the photoluminescence quantum yield (in ClC(Cl)Cl) is 0.31.
As for `CC(C)Oc1ccc(C#Cc2ccc3ccc(=O)oc3c2)cc1`, the photoluminescence quantum yield (in CC#N) is 0.034.
`c1ccc(-c2ccc3c4ccc(-c5ccccc5)c5c(-c6ccccc6)ccc(c6cccc2c63)c54)cc1` registered a photoluminescence quantum yield (in ClCCl) of 0.94.
`c1ccc(-c2nc(-c3ccccc3)nc(-c3ccc(-n4c5ccccc5c5c6oc7ccccc7c6ccc54)cc3)n2)cc1` had a photoluminescence quantum yield under setting [1] of 0.853.
In turn, `Cc1nc(-c2cc(F)ccc2O)n2c1CCCC2` registered a photoluminescence quantum yield (in ClCCl) of 0.72.
Compound `N#Cc1c(-n2nnc3c2CCC2C(CC3)[C@@H]2CO)n([C@H]2C[C@H](O)[C@@H](CO)O2)c2ncnc(N)c12` (stereo not given in full) registered a photoluminescence quantum yield (in CO) of 0.014.
Turning to `c1ccc2c(c1)Cc1ccccc1N2c1c2ccccc2cc2ccccc12`, the photoluminescence quantum yield (in Cc1ccccc1) worked out at 0.06.
`COc1ccc(-c2cc(-c3ccc(C#N)cc3)nn2C)cc1` had a photoluminescence quantum yield (in ClCCl) of 0.3.
`N#Cc1c(-n2c3ccccc3c3cc(Br)ccc32)c(C#N)c(-n2c3ccccc3c3cc(Br)ccc32)c(-n2c3ccccc3c3cc(Br)ccc32)c1-n1c2ccccc2c2cc(Br)ccc21` returned a photoluminescence quantum yield (in Cc1ccccc1) of 0.85.
For `COC(=O)c1ccc(/C=C2\C=C(c3ccc(OC)c(OC)c3)OC2=O)cc1`, the photoluminescence quantum yield (in C1COCCO1) is 0.355.
Regarding `Cc1ccc2ccc3c(C)ccc4ccc1c2c43`, the photoluminescence quantum yield by setting is: (in CCCCCC) 0.52; (in CO) 0.56; (in ClCCl) 0.4.
Regarding `N#Cc1cccc(C#N)c1-c1ccc(N2c3ccccc3C3(c4ccccc42)c2ccccc2N(c2ccc(-c4c(C#N)cccc4C#N)cc2)c2ccccc23)cc1`, under setting [1], the photoluminescence quantum yield was determined as 0.65.
